Reference: ChEMBL document CHEMBL5390204, “Persephacin Is a Broad-Spectrum Antifungal Aureobasidin Metabolite That Overcomes Intrinsic Resistance in Aspergillus fumigatus” (J Nat Prod, 2023)
In brackets after ≈: the same amount, converted by molar mass. Numbered stars: 1 amine (or outer) side, 2 acyl side, 3 side chain; on linkers, the order of the positions; unused ones are H or OH. Square brackets hold non-standard residues; d marks the D form. Peptide text beside a SMILES is read from it. X1 = CC[C@@H](C)[C@@H](O[*:1])C(=O)[*:2]; NMeVal(β-OH) = CN[C@H](C(=O)O)C(C)(C)O; NMeF = CN[C@@H](Cc1ccccc1)C(=O)O; aIle = CC[C@@H](C)[C@H](N)C(=O)O; NMeV = CN[C@H](C(=O)O)C(C)C

Columns and labels:
[1] = test system: Candida tropicalis; assay: Antifungal activity against Candida tropicalis ATCC750 (Y-12699) assessed as reduction in fungal viability incubated for 48 hrs by microplate reader analysis; format: functional
[2] = test system: Aspergillus fumigatus; assay: Antifungal activity against Aspergillus fumigatus NRRL5109 assessed as reduction in fungal viability incubated for 48 hrs by microplate reader analysis; format: functional
[3] = test system: Candida parapsilosis; assay: Antifungal activity against Candida parapsilosis ATCC 22019 (Y-12969) assessed as reduction in fungal growth incubated for 48 hrs by microplate reader analysis; format: functional; settings: Lodderomyces parapsilosis
[4] = test system: Cryptococcus neoformans; assay: Antifungal activity against Cryptococcus neoformans H99 assessed as reduction in fungal growth incubated for 48 hrs by microplate reader analysis; format: functional
[5] = test system: Aspergillus fumigatus; assay: Antifungal activity against Aspergillus fumigatus NRRL6113 assessed as reduction in fungal growth incubated for 48 hrs by microplate reader analysis; format: functional
[6] = test system: Mucor circinelloides; assay: Antifungal activity against Mucor circinelloides 235C7 assessed as reduction in fungal viability incubated for 48 hrs by microplate reader analysis; format: functional
[7] = test system: Aspergillus fumigatus; assay: Antifungal activity against Aspergillus fumigatus NRRL5109 assessed as reduction in fungal growth incubated for 48 hrs by microplate reader analysis; format: functional
[8] = test system: Curvularia lunata; assay: Antifungal activity against Curvularia lunata NRRL6409 assessed as reduction in fungal viability incubated for 48 hrs by microplate reader analysis; format: functional
[9] = test system: Aspergillus niger; assay: Antifungal activity against Aspergillus niger FGSC A732 assessed as reduction in fungal growth incubated for 48 hrs by microplate reader analysis; format: functional
[10] = test system: Candida albicans; assay: Antifungal activity against Candida albicans ATCC 10231 assessed as reduction in fungal growth incubated for 48 hrs by microplate reader analysis; format: functional
[11] = test system: Candida albicans; assay: Antifungal activity against Candida albicans SC5314 assessed as reduction in fungal viability incubated for 48 hrs by microplate reader analysis; format: functional
[12] = test system: Candida tropicalis; assay: Antifungal activity against Candida tropicalis ATCC750 (Y-12699) assessed as reduction in fungal growth incubated for 48 hrs by microplate reader analysis; format: functional
[13] = test system: Mucor circinelloides; assay: Antifungal activity against Mucor circinelloides 235C7 assessed as reduction in fungal growth incubated for 48 hrs by microplate reader analysis; format: functional
[14] = test system: Aspergillus fumigatus; assay: Antifungal activity against Aspergillus fumigatus MYA 3627 assessed as reduction in fungal viability incubated for 48 hrs by microplate reader analysis; format: functional
[15] = test system: Fusarium solani; assay: Antifungal activity against Fusarium solani 243G2 assessed as reduction in fungal viability incubated for 48 hrs by microplate reader analysis; format: functional
[16] = test system: Paecilomyces lilacinus; assay: Antifungal activity against Paecilomyces lilacinus 165E10 assessed as reduction in fungal viability incubated for 48 hrs by microplate reader analysis; format: functional, Purpureocillium lilacinum
[17] = test system: Curvularia lunata; assay: Antifungal activity against Curvularia lunata NRRL6409 assessed as reduction in fungal growth incubated for 48 hrs by microplate reader analysis; format: functional
[18] = test system: Hamigera insecticola; assay: Antifungal activity against Hamigera insecticola NRRL35442 assessed as reduction in fungal viability incubated for 48 hrs by microplate reader analysis; format: functional
[19] = test system: Cryptococcus neoformans; assay: Antifungal activity against Cryptococcus neoformans H99 assessed as reduction in fungal viability incubated for 48 hrs by microplate reader analysis; format: functional
[20] = test system: Candida albicans; assay: Antifungal activity against Candida albicans ATCC 10231 assessed as reduction in fungal viability incubated for 48 hrs by microplate reader analysis; format: functional
[21] = test system: Pichia kudriavzevii; assay: Antifungal activity against Candida krusei ATCC 6258 (Y-7179) assessed as reduction in fungal viability incubated for 48 hrs by microplate reader analysis; format: functional
[22] = test system: Pichia kudriavzevii; assay: Antifungal activity against Candida krusei ATCC 6258 (Y-7179) assessed as reduction in fungal growth incubated for 48 hrs by microplate reader analysis; format: functional
[23] = test system: Aspergillus niger; assay: Antifungal activity against Aspergillus niger FGSC A732 assessed as reduction in fungal viability incubated for 48 hrs by microplate reader analysis; format: functional
[24] = test system: Candida parapsilosis; assay: Antifungal activity against Candida parapsilosis ATCC 22019 (Y-12969) assessed as reduction in fungal viability incubated for 48 hrs by microplate reader analysis; format: functional
[25] = test system: Aspergillus flavus; assay: Antifungal activity against Aspergillus flavus NRRL485 assessed as reduction in fungal viability incubated for 48 hrs by microplate reader analysis; format: functional
[26] = test system: Aspergillus terreus; assay: Antifungal activity against Aspergillus terreus 191A6 assessed as reduction in fungal growth incubated for 48 hrs by microplate reader analysis; format: functional
[27] = test system: Rhizopus arrhizus; assay: Antifungal activity against Rhizopus oryzae FGSC 9543 assessed as reduction in fungal growth incubated for 48 hrs by microplate reader analysis; format: functional
[28] = test system: Rhizopus arrhizus; assay: Antifungal activity against Rhizopus oryzae FGSC 9543 assessed as reduction in fungal viability incubated for 48 hrs by microplate reader analysis; format: functional
[29] = test system: Aspergillus flavus; assay: Antifungal activity against Aspergillus flavus NRRL485 assessed as reduction in fungal growth incubated for 48 hrs by microplate reader analysis; format: functional
[30] = test system: Aspergillus terreus; assay: Antifungal activity against Aspergillus terreus 191A6 assessed as reduction in fungal viability incubated for 48 hrs by microplate reader analysis; format: functional
[31] = test system: Paecilomyces lilacinus; assay: Antifungal activity against Paecilomyces lilacinus 165E10 assessed as reduction in fungal growth incubated for 48 hrs by microplate reader analysis; format: functional; settings: Purpureocillium lilacinum
[32] = test system: Candida albicans; assay: Antifungal activity against Candida albicans SC5314 assessed as reduction in fungal growth incubated for 48 hrs by microplate reader analysis; format: functional
[33] = test system: Aspergillus fumigatus; assay: Antifungal activity against Aspergillus fumigatus MYA 3627 assessed as reduction in fungal growth incubated for 48 hrs by microplate reader analysis; format: functional
[34] = test system: Aspergillus fumigatus; assay: Antifungal activity against Aspergillus fumigatus NRRL6113 assessed as reduction in fungal viability incubated for 48 hrs by microplate reader analysis; format: functional
[35] = test system: Fusarium solani; assay: Antifungal activity against Fusarium solani 243G2 assessed as reduction in fungal growth incubated for 48 hrs by microplate reader analysis; format: functional
[36] = test system: Hamigera insecticola; assay: Antifungal activity against Hamigera insecticola NRRL35442 assessed as reduction in fungal growth incubated for 48 hrs by microplate reader analysis; format: functional

SMILES: CC[C@H](C)C[C@H](C)CCCCCCCCC(=O)N[C@H]1C[C@@H](O)[C@@H](NCCN)NC(=O)[C@@H]2[C@@H](O)CCN2C(=O)[C@H]([C@H](O)CCN)NC(=O)[C@H]([C@H](O)[C@@H](O)c2ccc(O)cc2)NC(=O)[C@@H]2C[C@@H](O)CN2C(=O)[C@H]([C@@H](C)O)NC1=O [CASPOFUNGIN]
- MFC<=99.9 [1]: 0.2 µM (≈ 0.219 µg/mL)
- MFC<=99.9 [2]: >10 µM
- MFC [3]: 1.3 µM (≈ 1.42 µg/mL)
- MIC80 [3]: 0.3 µM (≈ 0.328 µg/mL)
- MFC [4]: > 10 µM
- MIC80 [4]: > 10 µM
- MFC [5]: > 10 µM
- MIC80 [5]: > 10 µM
- MFC<=99.9 [6]: >10 µM
- MFC [7]: > 10 µM
- MIC80 [7]: > 10 µM
- MFC<=99.9 [8]: 5 µM (≈ 5.47 µg/mL)
- MFC [9]: > 10 µM
- MIC80 [9]: 0.1 µM (≈ 0.109 µg/mL)
- MFC [10]: 5 µM (≈ 5.47 µg/mL)
- MIC80 [10]: 0.03 µM (≈ 0.0328 µg/mL)
- MFC<=99.9 [11]: 0.63 µM (≈ 0.689 µg/mL)
- MFC [12]: 0.2 µM (≈ 0.219 µg/mL)
- MIC80 [12]: 0.03 µM (≈ 0.0328 µg/mL)
- MFC [13]: > 10 µM
- MIC80 [13]: > 10 µM
- MFC<=99.9 [14]: >10 µM
- MFC<=99.9 [15]: >10 µM
- MFC<=99.9 [16]: >10 µM
- MFC [17]: 5 µM (≈ 5.47 µg/mL)
- MIC80 [17]: 5 µM (≈ 5.47 µg/mL)
- MFC<=99.9 [18]: >10 µM
- MFC<=99.9 [19]: >10 µM
- MFC<=99.9 [20]: 5 µM (≈ 5.47 µg/mL)
- MFC<=99.9 [21]: 0.3 µM (≈ 0.328 µg/mL)
- MFC [22]: 0.3 µM (≈ 0.328 µg/mL)
- MIC80 [22]: 0.2 µM (≈ 0.219 µg/mL)
- MFC<=99.9 [23]: >10 µM
- MFC<=99.9 [24]: 1.3 µM (≈ 1.42 µg/mL)
- MFC<=99.9 [25]: >10 µM
- MFC [26]: > 10 µM
- MIC80 [26]: 0.13 µM (≈ 0.142 µg/mL)
- MFC [27]: > 10 µM
- MIC80 [27]: > 10 µM
- MFC<=99.9 [28]: >10 µM
- MFC [29]: > 10 µM
- MIC80 [29]: > 10 µM
- MFC<=99.9 [30]: >10 µM
- MFC [31]: > 10 µM
- MIC80 [31]: > 10 µM
- MFC [32]: 0.63 µM (≈ 0.689 µg/mL)
- MIC80 [32]: 0.03 µM (≈ 0.0328 µg/mL)
- MFC [33]: > 10 µM
- MIC80 [33]: 0.1 µM (≈ 0.109 µg/mL)
- MFC<=99.9 [34]: >10 µM
- MFC [35]: > 10 µM
- MIC80 [35]: 0.2 µM (≈ 0.219 µg/mL)
- MFC [36]: > 10 µM
- MIC80 [36]: 0.1 µM (≈ 0.109 µg/mL)

SMILES: CC[C@@H](C)[C@@H]1NC(=O)[C@@H]2CCCN2C(=O)[C@H](Cc2ccccc2)N(C)C(=O)[C@H](Cc2ccccc2)NC(=O)[C@H](C(C)C)N(C)C(=O)[C@@H]([C@H](C)CC)OC(=O)[C@H](C(C)(C)O)N(C)C(=O)[C@H](CC(C)C)NC(=O)[C@H](C(C)C)N(C)C1=O [AUREOBASIDIN A] (cyclo(F[NMeF]P[aIle][NMeV]L[NMeVal(β-OH)][X1][NMeV]))
- MFC<=99.9 [1]: 0.6 µM (≈ 0.661 µg/mL)
- MFC<=99.9 [2]: >10 µM
- MFC [3]: 2.5 µM (≈ 2.75 µg/mL)
- MIC80 [3]: 1.3 µM (≈ 1.43 µg/mL)
- MFC [4]: 2.5 µM (≈ 2.75 µg/mL)
- MIC80 [4]: 2.5 µM (≈ 2.75 µg/mL)
- MFC [5]: > 10 µM
- MIC80 [5]: > 10 µM
- MFC<=99.9 [6]: >10 µM
- MFC [7]: > 10 µM
- MIC80 [7]: > 10 µM
- MFC<=99.9 [8]: 1.3 µM (≈ 1.43 µg/mL)
- MFC [9]: > 10 µM
- MIC80 [9]: 5 µM (≈ 5.51 µg/mL)
- MFC [10]: 2.5 µM (≈ 2.75 µg/mL)
- MIC80 [10]: 0.6 µM (≈ 0.661 µg/mL)
- MFC<=99.9 [11]: 0.6 µM (≈ 0.661 µg/mL)
- MFC [12]: 0.6 µM (≈ 0.661 µg/mL)
- MIC80 [12]: 0.6 µM (≈ 0.661 µg/mL)
- MFC [13]: > 10 µM
- MIC80 [13]: > 10 µM
- MFC<=99.9 [14]: >10 µM
- MFC<=99.9 [15]: >10 µM
- MFC<=99.9 [16]: >10 µM
- MFC [17]: 1.3 µM (≈ 1.43 µg/mL)
- MIC80 [17]: 0.6 µM (≈ 0.661 µg/mL)
- MFC<=99.9 [18]: >10 µM
- MFC<=99.9 [19]: 2.5 µM (≈ 2.75 µg/mL)
- MFC<=99.9 [20]: 2.5 µM (≈ 2.75 µg/mL)
- MFC<=99.9 [21]: 2.5 µM (≈ 2.75 µg/mL)
- MFC [22]: 2.5 µM (≈ 2.75 µg/mL)
- MIC80 [22]: 1.3 µM (≈ 1.43 µg/mL)
- MFC<=99.9 [23]: >10 µM
- MFC<=99.9 [24]: 2.5 µM (≈ 2.75 µg/mL)
- MFC<=99.9 [25]: >10 µM
- MFC [26]: > 10 µM
- MIC80 [26]: 2.5 µM (≈ 2.75 µg/mL)
- MFC [27]: > 10 µM
- MIC80 [27]: > 10 µM
- MFC<=99.9 [28]: >10 µM
- MFC [29]: > 10 µM
- MIC80 [29]: > 10 µM
- MFC<=99.9 [30]: >10 µM
- MFC [31]: > 10 µM
- MIC80 [31]: 5 µM (≈ 5.51 µg/mL)
- MFC [32]: 0.6 µM (≈ 0.661 µg/mL)
- MIC80 [32]: 0.3 µM (≈ 0.33 µg/mL)
- MFC [33]: > 10 µM
- MIC80 [33]: > 10 µM
- MFC<=99.9 [34]: >10 µM
- MFC [35]: > 10 µM
- MIC80 [35]: 5 µM (≈ 5.51 µg/mL)
- MFC [36]: > 10 µM
- MIC80 [36]: 0.6 µM (≈ 0.661 µg/mL)
